Reference: publication PMC7807814 (ACS Omega, 2020)

Target: GST–VCB protein complex (Homo sapiens, UniProt P40337)
Format: binding
Details: reported FP Kd versus TR-FRET Ki

GST–VCB protein complex, sequence (P40337 54-213): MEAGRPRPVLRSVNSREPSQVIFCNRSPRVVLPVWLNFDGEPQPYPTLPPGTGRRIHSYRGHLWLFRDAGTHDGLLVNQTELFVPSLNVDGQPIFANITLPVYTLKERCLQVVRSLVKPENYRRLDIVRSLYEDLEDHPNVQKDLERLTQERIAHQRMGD
GST–VCB protein complex, sequence (Q15369 17-112, further chain): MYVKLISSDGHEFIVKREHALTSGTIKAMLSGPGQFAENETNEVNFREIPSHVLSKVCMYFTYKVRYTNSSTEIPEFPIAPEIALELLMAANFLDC
GST–VCB protein complex, sequence (Q15370 whole entry, further chain): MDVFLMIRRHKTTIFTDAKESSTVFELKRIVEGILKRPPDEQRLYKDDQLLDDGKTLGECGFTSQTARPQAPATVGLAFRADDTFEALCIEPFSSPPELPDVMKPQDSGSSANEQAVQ

| sensitivity of TR-FRET assay over FAM–HIF–1α peptide (19 mer)-based FP assay [fold] | SMILES |
| --- | --- |
| 4.49 | CC(=O)N[C@H](C(=O)N1C[C@H](O)C[C@H]1C(=O)NCc1ccc(-c2scnc2C)cc1)C(C)(C)C [VH032 (1), (2S,4R)-1-((S)-2-Acetamido-3,3-dimethylbutanoyl)-4-hydroxy-N-(4-(4-methylthiazol-5-yl)benzyl)pyrrolidine-2-carboxamide] |
| 4.23 | Cc1ncsc1-c1ccc(CNC(=O)[C@@H]2C[C@@H](O)CN2C(=O)[C@@H](NC(=O)C2(C#N)CC2)C(C)(C)C)cc1 [VH298 (2), (2S,4R)-1-((S)-2-(1-Cyanocyclopropanecarboxamido)-3,3-dimethylbutanoyl)-4-hydroxy-N-(4-(4-methylthiazol-5-yl)benzyl)pyrrolidine-2-carboxamide] |
